Results: ChEMBL document CHEMBL1154967, “Bioactive bromophycolides R-U from the Fijian red alga Callophycus serratus” (J Nat Prod, 2010)
In brackets after ≈: the same amount, converted by molar mass.

How the values were obtained:
Plasmodium falciparum = assay: Antimalarial activity against Plasmodium falciparum assessed as SYBR Green uptake after 48 hrs; type: functional, organism-based
Staphylococcus aureus = assay: Antibacterial activity against methicillin resistant Staphylococcus aureus ATCC 33591; type: functional, organism-based
Enterococcus faecium = assay: Antibacterial activity against vancomycin resistant Enterococcus faecium ATCC 700221; type: functional, organism-based
Candida albicans = assay: Antifungal activity against amphotericin resistant Candida albicans ATCC 90873 after 12 to 15 hrs by Alamar Blue assay; type: functional, organism-based
[1] = test system: Mycobacterium tuberculosis; assay: Antitubercular activity against Mycobacterium tuberculosis […] ATCC 27294 after 4 days by microplate alamar blue assay; type: functional; details: 96 h

SMILES	IC50 (Plasmodium falciparum)	IC50 (Staphylococcus aureus)	IC50 (Enterococcus faecium)	IC50 (Candida albicans)	MIC [1]
C=C(C)[C@@H]1CC[C@]2(C)O[C@H]2CC[C@@]2(C)[C@H](Cc3cc(ccc3O)C(=O)O1)C(=C)CC[C@@H]2Br [BROMOPHYCOLIDE R]	1.7 µM	> 15 µM	> 15 µM	> 15 µM	> 50 µM
C=C1CC[C@H](Br)[C@@]2(C)CC[C@@H]3O[C@@]3(C)CC[C@@H](C(C)(C)Br)OC(=O)c3ccc(O)c(c3)C[C@H]12 [BROMOPHYCOLIDE S]	0.9 µM	> 15 µM	3.8 µM	> 15 µM	23 µM (≈ 13.4 µg/mL)
CC1=CC[C@H](Br)[C@@]2(C)CC[C@@H](Br)[C@@]3(C)CC[C@H](OC(=O)c4ccc(O)c(c4)C[C@H]12)C(C)(C)O3 [BROMOPHYCOLIDE U]	2.1 µM	0.9 µM	0.9 µM	> 15 µM	22 µM (≈ 12.9 µg/mL)
